ChEMBL document CHEMBL1201862, “PubChem BioAssay data set” (2004)
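Cultured in 96-well plates, cells were exposed to test compound for 48 hours across five concentrations. GI50 is the concentration that inhibits growth by half.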 The source made the active and inactive calls. No stated cut-off is given here; in the data, active = GI50 up to about 1.1 µM and inactive = higher.

Key:
Assay in all cases: growth of human tumour cells (NCI), 48 h
[1] = system: SF-295
[2] = system: OVCAR-8
[3] = system: TK-10
[4] = system: U-251
[5] = system: NCI/ADR-RES
[6] = system: SK-MEL-2
[7] = system: Malme-3M
[8] = system: IGROV-1
[9] = system: A549
[10] = system: K562
[11] = system: NCI-H522
[12] = system: SW-620
[13] = system: MDA-N
[14] = system: ACHN
[15] = system: UACC-62
[16] = system: 786-0
[17] = system: HCC 2998
[18] = system: HOP-62
[19] = system: COLO 205
[20] = system: SK-OV-3

Row | Compound | GI50 [1] | GI50 [2] | GI50 [3] | GI50 [4] | GI50 [5] | GI50 [6] | GI50 [7] | GI50 [8] | GI50 [9] | GI50 [10] | GI50 [11] | GI50 [12] | GI50 [13] | GI50 [14] | GI50 [15] | GI50 [16] | GI50 [17] | GI50 [18] | GI50 [19] | GI50 [20]
1 | COc1cccc2c(=O)oc(-c3ccc(C(C)(C)C)cc3)nc12 | 69.7 µM (inactive) | 39.7 µM (inactive) | > 100 µM (inactive) | 42.2 µM (inactive) | 54.8 µM (inactive) | 44 µM (inactive) | > 100 µM (inactive) | 45.1 µM (inactive) | 85.1 µM (inactive) | > 100 µM (inactive) | 30.1 µM (inactive) | 55.2 µM (inactive) | 76.7 µM (inactive) | > 100 µM (inactive) | > 100 µM (inactive) | > 100 µM (inactive) | 0.447 µM (active) | 48.2 µM (inactive) | 57 µM (inactive) | 80.9 µM (inactive)
2 | CN1c2ccccc2C(=O)Nc2cnc(Cl)nc21 | 46.3 µM (inactive) | 65.2 µM (inactive) | > 100 µM (inactive) | 45.5 µM (inactive) | 82.6 µM (inactive) | > 100 µM (inactive) | > 100 µM (inactive) | > 100 µM (inactive) | > 100 µM (inactive) | > 100 µM (inactive) | 64.6 µM (inactive) | > 100 µM (inactive) | > 100 µM (inactive) | > 100 µM (inactive) | > 100 µM (inactive) | 35.8 µM (inactive) | > 100 µM (inactive) | 31.1 µM (inactive) | > 100 µM (inactive) | > 100 µM (inactive)
3 | CCN(CC)CCOc1ccccc1/C=C/c1noc2ccccc12 | 16.2 µM (inactive) | 12.2 µM (inactive) | 15 µM (inactive) | – | 19 µM (inactive) | 0.736 µM (active) | 1.01 µM (active) | 9.91 µM (inactive) | – | 9.29 µM (inactive) | 8.17 µM (inactive) | 10.2 µM (inactive) | 11.8 µM (inactive) | 12.7 µM (inactive) | 10.6 µM (inactive) | 13.6 µM (inactive) | 5.79 µM (inactive) | 14.4 µM (inactive) | 6.21 µM (inactive) | 20 µM (inactive)
4 | c1ccc2c(c1)Sc1nccc3ccnc-2c13 | 33.3 µM (inactive) | 21.9 µM (inactive) | 12.4 µM (inactive) | 23.9 µM (inactive) | 25.2 µM (inactive) | > 100 µM (inactive) | 31.6 µM (inactive) | 27.7 µM (inactive) | – | 71.3 µM (inactive) | 21.9 µM (inactive) | 19.3 µM (inactive) | 57.3 µM (inactive) | 13.8 µM (inactive) | 23.3 µM (inactive) | 80.4 µM (inactive) | 33.3 µM (inactive) | 35.8 µM (inactive) | 48.3 µM (inactive) | > 100 µM (inactive)
5 | CC(C)/C(Cl)=N/OC(=O)Nc1cccc(C(F)(F)F)c1 | 18.3 µM (inactive) | 14.5 µM (inactive) | 3.5 µM (inactive) | 17 µM (inactive) | 5.5 µM (inactive) | 17.8 µM (inactive) | 1.6 µM (inactive) | 13.4 µM (inactive) | 19.3 µM (inactive) | 1.54 µM (inactive) | 0.14 µM (active) | 1.35 µM (inactive) | 10.6 µM (inactive) | 1.69 µM (inactive) | 13.6 µM (inactive) | 2.52 µM (inactive) | 15.8 µM (inactive) | 18.1 µM (inactive) | 2.07 µM (inactive) | 17.7 µM (inactive)
6 | CC(C)(C)OC(=O)NCCCCC(N)C(N)=O (stereo not given) | > 100 µM (inactive) | > 100 µM (inactive) | > 100 µM (inactive) | > 100 µM (inactive) | > 100 µM (inactive) | > 100 µM (inactive) | > 100 µM (inactive) | > 100 µM (inactive) | > 100 µM (inactive) | > 100 µM (inactive) | > 100 µM (inactive) | > 100 µM (inactive) | > 100 µM (inactive) | > 100 µM (inactive) | 7.46 µM (inactive) | > 100 µM (inactive) | > 100 µM (inactive) | > 100 µM (inactive) | > 100 µM (inactive) | 54.7 µM (inactive)
7 | CC(=O)Oc1ccc(/C=C/C(=O)O[C@@H](C(=O)O)[C@@H](OC(=O)/C=C/c2ccc(OC(C)=O)c(OC(C)=O)c2)C(=O)O)cc1OC(C)=O | > 100 µM (inactive) | > 100 µM (inactive) | > 100 µM (inactive) | > 100 µM (inactive) | > 100 µM (inactive) | > 100 µM (inactive) | > 100 µM (inactive) | > 100 µM (inactive) | > 100 µM (inactive) | > 100 µM (inactive) | > 100 µM (inactive) | > 100 µM (inactive) | > 100 µM (inactive) | > 100 µM (inactive) | > 100 µM (inactive) | > 100 µM (inactive) | > 100 µM (inactive) | > 100 µM (inactive) | > 100 µM (inactive) | > 100 µM (inactive)
8 | O=Cc1ccc2c(c1)CC1(Cc3ccccc3C1)C2 | 31.3 µM (inactive) | 19.3 µM (inactive) | 36.6 µM (inactive) | 17.8 µM (inactive) | 26.5 µM (inactive) | 11.2 µM (inactive) | 18.2 µM (inactive) | 20.5 µM (inactive) | > 100 µM (inactive) | 22.1 µM (inactive) | 48.4 µM (inactive) | – | 18.7 µM (inactive) | 22.1 µM (inactive) | 2.38 µM (inactive) | 14.2 µM (inactive) | 59 µM (inactive) | 16.1 µM (inactive) | 21.8 µM (inactive) | 38.1 µM (inactive)
9 | C[N+](C)(C)c1ncnc2c1ncn2C1CCCO1 (stereo not given) | > 100 µM (inactive) | > 100 µM (inactive) | > 100 µM (inactive) | > 100 µM (inactive) | > 100 µM (inactive) | > 100 µM (inactive) | > 100 µM (inactive) | > 100 µM (inactive) | > 100 µM (inactive) | > 100 µM (inactive) | > 100 µM (inactive) | > 100 µM (inactive) | > 100 µM (inactive) | > 100 µM (inactive) | > 100 µM (inactive) | > 100 µM (inactive) | > 100 µM (inactive) | > 100 µM (inactive) | > 100 µM (inactive) | > 100 µM (inactive)
10 | C=CCN(c1cc(OC)c(NC(C)=O)cc1[N+](=O)[O-])S(C)(=O)=O | > 100 µM (inactive) | > 100 µM (inactive) | > 100 µM (inactive) | > 100 µM (inactive) | > 100 µM (inactive) | > 100 µM (inactive) | 10.1 µM (inactive) | > 100 µM (inactive) | > 100 µM (inactive) | > 100 µM (inactive) | 0.0349 µM (active) | > 100 µM (inactive) | > 100 µM (inactive) | > 100 µM (inactive) | > 100 µM (inactive) | > 100 µM (inactive) | > 100 µM (inactive) | > 100 µM (inactive) | > 100 µM (inactive) | > 100 µM (inactive)
11 | Clc1ccc(CCN2CCN(CCCc3ccccc3)CC2)cc1Cl | 16.4 µM (inactive) | 16.3 µM (inactive) | 16.2 µM (inactive) | 17.4 µM (inactive) | 14.7 µM (inactive) | 18.8 µM (inactive) | 19.1 µM (inactive) | 17 µM (inactive) | 15.9 µM (inactive) | 26.6 µM (inactive) | 20.6 µM (inactive) | 20 µM (inactive) | 16.9 µM (inactive) | 19.6 µM (inactive) | 16.8 µM (inactive) | 16.6 µM (inactive) | 17 µM (inactive) | 18.5 µM (inactive) | 15.4 µM (inactive) | 19.3 µM (inactive)
12 | CCCC(=O)OC1CC(n2cc(F)c(=O)[nH]c2=O)OC1COP(=O)(OCC(Cl)(Cl)Cl)OCC(Cl)(Cl)Cl (stereo not given) | 0.167 µM (active) | 0.925 µM (active) | 22.5 µM (inactive) | 4.02 µM (inactive) | 1.17 µM (inactive) | > 59.4 µM (inactive) | 5.41 µM (inactive) | 14.8 µM (inactive) | 0.461 µM (active) | > 10 µM (inactive) | 5.51 µM (inactive) | 19.9 µM (inactive) | 7.01 µM (inactive) | 0.147 µM (active) | 2.06 µM (inactive) | 0.31 µM (active) | < 0.01 µM (active) | 0.131 µM (active) | 0.0614 µM (active) | 12.4 µM (inactive)
13 | COc1ccc2c(c1)c1c3c(ccc4ncn2c43)N(CCO)CCN=1 | 0.19 µM (active) | 0.0927 µM (active) | 0.389 µM (active) | 0.254 µM (active) | 0.334 µM (active) | 0.175 µM (active) | 0.187 µM (active) | 2.02 µM (inactive) | 0.218 µM (active) | 0.0586 µM (active) | 0.106 µM (active) | 0.802 µM (active) | 0.214 µM (active) | 0.146 µM (active) | 0.216 µM (active) | 0.0736 µM (active) | 0.147 µM (active) | 0.132 µM (active) | 0.101 µM (active) | 0.305 µM (active)
14 | NC(Cc1ccccc1)C(=O)NC(Cc1ccccc1)NC(=O)C(Cc1c[nH]c2ccccc12)C(=O)O (stereo not given) | > 100 µM (inactive) | > 100 µM (inactive) | > 100 µM (inactive) | > 100 µM (inactive) | > 100 µM (inactive) | 9.35 µM (inactive) | > 100 µM (inactive) | > 100 µM (inactive) | > 100 µM (inactive) | – | > 100 µM (inactive) | > 100 µM (inactive) | > 100 µM (inactive) | > 100 µM (inactive) | > 100 µM (inactive) | > 100 µM (inactive) | > 100 µM (inactive) | > 100 µM (inactive) | > 100 µM (inactive) | > 100 µM (inactive)
